Measurements as given in patent publication US8455475B2 (Gruenenthal GmbH, priority 2009, dated 2013).

How the values were obtained:
[1] = target: T1, rat B1R (bradykinin receptor 1) (Rattus norvegicus, UniProt P97583); test: FLIPR Ca2+ assay (Fluo-4) on CHO K1 cells stably transfected with the B1R gene of the rat (rB1R cells): % inhibition at 10 μM / IC50, agonist Des-Arg9-bradykinin; format: cell-based; details: for inhibition at 10 µM: CHO-K1, rat B1R
T1 construct: expressed in transfected cells; host or cells: CHO K1 cells
T1 sequence (P97583 1-337): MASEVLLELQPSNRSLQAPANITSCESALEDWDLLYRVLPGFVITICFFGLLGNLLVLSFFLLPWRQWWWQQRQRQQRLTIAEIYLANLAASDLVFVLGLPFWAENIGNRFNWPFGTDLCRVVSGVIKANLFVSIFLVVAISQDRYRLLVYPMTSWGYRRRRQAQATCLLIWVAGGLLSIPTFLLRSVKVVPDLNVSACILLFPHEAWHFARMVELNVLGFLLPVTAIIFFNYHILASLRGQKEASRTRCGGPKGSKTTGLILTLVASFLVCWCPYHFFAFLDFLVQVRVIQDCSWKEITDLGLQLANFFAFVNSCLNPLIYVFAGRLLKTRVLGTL
Outline: (§1)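 Loading with Fluo-4 occurs for 60 min at 37 °C, or alternatively in buffer A, before FLIPR measurement. Compounds are applied, incubated 10–20 min, and then the EC80 agonist is added. Antagonism appears as reduced peak Ca2+ signal relative to maximal inhibition.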

[2] = target: T2, human B1R (bradykinin receptor 1) (Homo sapiens, UniProt P46663); test: FLIPR Ca2+ assay (Fluo-4) on CHO K1 cells stably transfected with the human B1R gene (hB1R cells): % inhibition at 10 μM / IC50, agonist Lys-Des-Arg9-bradykinin; format: cell-based; details: for inhibition at 10 µM: CHO-K1, human B1R
T2 construct: expressed in transfected cells; host or cells: CHO K1 cells
T2 sequence (P46663 1-353): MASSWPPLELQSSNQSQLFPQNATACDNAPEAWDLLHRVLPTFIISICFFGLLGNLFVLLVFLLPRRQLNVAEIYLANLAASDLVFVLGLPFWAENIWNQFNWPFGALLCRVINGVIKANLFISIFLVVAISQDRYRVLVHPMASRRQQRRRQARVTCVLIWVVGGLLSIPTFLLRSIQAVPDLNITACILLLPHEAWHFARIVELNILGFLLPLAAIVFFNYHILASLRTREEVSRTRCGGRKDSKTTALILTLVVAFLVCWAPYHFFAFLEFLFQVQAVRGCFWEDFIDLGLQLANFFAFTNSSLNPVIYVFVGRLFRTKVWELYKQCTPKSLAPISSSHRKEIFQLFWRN
Outline: as §1

inhibition at 10 µM [1] [%] | inhibition at 10 µM [2] [%] | % Inhibition (rat B1R) at 10 μM ([1]; rat B1R, 10 µM) [%] | % Inhibition (human B1R) at 10 μM ([2]; human B1R, 10 µM) [%] | SMILES
101 | 98 |  |  | CN(C1CCc2ccc(C(=O)N3CCC4(CC3)CCN(c3ccncc3)CC4)cc21)S(=O)(=O)Cc1ccccc1C(F)(F)F (stereo not drawn) [IND_CC-226, N-Methyl-N-[6-(9-pyridin-4-yl-3,9-diazaspiro[5.5]undecane-3-carbonyl)-2,3-dihydro-1H-inden-1-yl]-1-[2-(trifluoromethyl)-phenyl]-methanesulfonic acid amide]
102 | 58 |  |  | COc1ccc(C(=O)NC2CCc3ccc(C(=O)N4CCC5(CC4)CCN(c4ccncc4)C5)cc32)c(Cl)c1 (stereo not drawn) [IND_CC-212, 2-Chloro-4-methoxy-N-[6-(2-pyridin-4-yl-2,8-diazaspiro[4.5]decane-8-carbonyl)-2,3-dihydro-1H-inden-1-yl]-benzamide]
100 | 35 |  |  | O=C(NC1CCc2ccc(C(=O)N3CCC4(CC3)CCN(c3ccc(C(F)(F)F)cc3)CC4)cc21)c1ccccc1Cl (stereo not drawn) [IND_CC-290, 2-Chloro-N-[6-[9-[4-(trifluoromethyl)-phenyl]-3,9-diazaspiro[5.5]undecane-3-carbonyl]-2,3-dihydro-1H-inden-1-yl]-benzamide]
103 | 59 |  |  | COc1ccc(C(=O)N(C)C2CCc3ccc(C(=O)N4CCC5(CC4)CCN(c4ccncc4)CC5)cc32)c(F)c1 (stereo not drawn) [IND_CC-296, 2-Fluoro-4-methoxy-N-methyl-N-[6-(9-pyridin-4-yl-3,9-diazaspiro[5.5]undecane-3-carbonyl)-2,3-dihydro-1H-inden-1-yl]-benzamide]
100 | 42 |  |  | COc1cc(C)c(C(=O)NC2CCc3ccc(C(=O)N4CCC5(CC4)CCN(c4cccnc4)CC5)cc32)c(C)c1 (stereo not drawn) [Ind_CC-090, 4-methoxy-2,6-dimethyl-N-[6-(9-pyridin-3-yl-3,9-diazaspiro[5.5]undecane-3-carbonyl)-2,3-dihydro-1H-inden-1-yl]-benzamide]
51 | 23 |  |  | CN(C(=O)c1ccccc1Cl)C1CCc2ccc(C(=O)N3CCC4(CC3)CCN(c3ccc(F)cc3)CC4)cc21 (stereo not drawn) [Ind_CC-108, 2-chloro-N-[6-[9-(4-fluorophenyl)-3,9-diazaspiro[5.5]undecane-3-carbonyl]-2,3-dihydro-1H-inden-1-yl]-N-methyl-benzamide]
104 | 98 |  |  | CC1(C)Cc2ccc(C(=O)N3CCC4(CC3)CCN(c3ccncc3)CC4)cc2C1NC(=O)c1ccccc1Cl (stereo not drawn) [IND_CC-291, 2-Chloro-N-[2,2-dimethyl-6-(9-pyridin-4-yl-3,9-diazaspiro[5.5]undecane-3-carbonyl)-1,3-dihydro-inden-1-yl]-benzamide]
102 | 100 |  |  | O=C(NC1CCc2ccc(C(=O)N3CCC4(CC3)CCN(c3ccncc3)C4)cc21)c1cc(F)c(F)cc1Cl (stereo not drawn) [IND_CC-229, 2-Chloro-4,5-difluoro-N-[6-(2-pyridin-4-yl-2,8-diazaspiro[4.5]decane-8-carbonyl)-2,3-dihydro-1H-inden-1-yl]-benzamide]
100 | 97 |  |  | O=C(c1ccc2c(c1)C(NS(=O)(=O)c1ccccc1Cl)CC2)N1CCC2(CC1)CCN(c1ccncc1)CC2 (stereo not drawn) [Ind_CC-010, 2-chloro-N-[6-(9-pyridin-4-yl-3,9-diazaspiro[5.5]undecane-3-carbonyl)-2,3-dihydro-1H-inden-1-yl]-benzenesulfonic acid amide]
103 | 58 |  |  | Cc1ccc(F)c(C(=O)NC2c3cc(C(=O)N4CCC5(CC4)CCN(c4ccncc4)CC5)ccc3CC2(C)C)c1Cl (stereo not drawn) [IND_CC-216, 2-Chloro-N-[2,2-dimethyl-6-(9-pyridin-4-yl-3,9-diazaspiro[5.5]undecane-3-carbonyl)-1,3-dihydro-inden-1-yl]-6-fluoro-3-methyl-benzamide]
104 | 97 |  |  | CC1(C)Cc2ccc(C(=O)N3CCC4(CC3)CCN(c3ccncc3)CC4)cc2C1NC(=O)c1cc(Cl)ccc1Cl (stereo not drawn) [IND_CC-210, 2,5-Dichloro-N-[2,2-dimethyl-6-(9-pyridin-4-yl-3,9-diazaspiro[5.5]undecane-3-carbonyl)-1,3-dihydro-inden-1-yl]-benzamide]
98 | 34 |  |  | O=C(NC1CCc2ccc(C(=O)N3CCC4(CCN(Cc5ccncc5)CC4)CC3)cc21)c1ccccc1Cl (stereo not drawn) [Ind_CC-098, 2-chloro-N-[6-[9-(pyridin-4-yl-methyl)-3,9-diazaspiro[5.5]undecane-3-carbonyl]-2,3-dihydro-1H-inden-1-yl]-benzamide]
102 | 99 |  |  | CC1(C)CC(NC(=O)c2sccc2Cl)c2cc(C(=O)N3CCC4(CC3)CCN(c3ccncc3)CC4)ccc21 (stereo not drawn) [Ind_CC-055, 3-chloro-N-[3,3-dimethyl-6-(9-pyridin-4-yl-3,9-diazaspiro[5.5]undecane-3-carbonyl)-1,2-dihydro-inden-1-yl]-thiophene-2-carboxylic acid amide]

More lines, now with the values behind:

SMILES | inhibition at 10 µM [1] [%] | inhibition at 10 µM [2] [%] | % Inhibition (rat B1R) at 10 μM ([1]; rat B1R, 10 µM) [%] | % Inhibition (human B1R) at 10 μM ([2]; human B1R, 10 µM) [%]
O=C(N[C@@H]1CCCc2ccc(C(=O)N3CCC4(CC3)CCN(c3ccncc3)C4)cc21)c1ccccc1Cl [Example H-72] | 104 | 100 |  | 
Cc1ccccc1CC(=O)N[C@@H]1CCc2ccc(C(=O)N3CCC4(CCN(c5ccncc5)CC4)C3)cc21 [Example H-154, 2-(o-Tolyl)-N-[(1R)-6-(8-pyridin-4-yl-3,8-diazaspiro[4.5]decane-3-carbonyl)-2,3-dihydro-1H-inden-1-yl]-acetamide] | 105 | 99 |  | 
O=C(N[C@@H]1CCCc2ccc(C(=O)N3CCC4(CCCN(c5ccncc5)C4)C3)cc21)c1ccccc1Cl (stereo partly drawn) [Example H-81, 2-Chloro-N-[(1R)-7-(7-pyridin-4-yl-3,7-diazaspiro[4.5]decane-3-carbonyl)-1,2,3,4-tetrahydro-naphthalen-1-yl]-benzamide] | 103 | 78 |  | 
O=C(c1ccc2c(c1)C(N1Cc3cccc(Cl)c3C1=O)CC2)N1CCC2(CC1)CCN(c1ccncc1)CC2 (stereo not drawn) [Example H-01, 7-chloro-2-[6-(9-pyridin-4-yl-3,9-diazaspiro[5.5]undecane-3-carbonyl)-2,3-dihydro-1H-indan-1-yl]-2,3-dihydro-isoindol-1-one] | 97 | 100 |  | 
O=C(c1cccc2c1CC[C@H]2NS(=O)(=O)c1ccccc1Cl)N1CCC2(CCN(c3ccncc3)CC2)C1 [Example H-166, 2-Chloro-N-[(1R)-4-(8-pyridin-4-yl-3,8-diazaspiro[4.5]decane-3-carbonyl)-2,3-dihydro-1H-inden-1-yl]-benzenesulfonic acid amide] | -4 | 21 |  | 
O=C(NC1CCc2ccc(C(=O)N3CCCC4(CC3)CCN(c3ccncc3)CC4)cc21)c1ccccc1Cl (stereo not drawn) [Example H-138, 2-Chloro-N-[6-(3-pyridin-4-yl-3,10-diazaspiro[5.6]dodecane-10-carbonyl)-2,3-dihydro-1H-inden-1-yl]-benzamide] | 102 | 100 |  | 
O=C(N[C@@H]1CCc2ccc(C(=O)N3CCC4(CCC(N5CCn6ncnc6C5)CC4)CC3)cc21)c1ccccc1Cl [Example H-55, 2-Chloro-N-[(1R)-6-[9-(5,6,7,8-tetrahydro-[1,2,4]triazolo[1,5-a]pyrazin-7-yl)-3-azaspiro[5.5]undecane-3-carbonyl]-2,3-dihydro-1H-inden-1-yl]-benzamide] | 87 | 42 |  | 
O=C(N[C@@H]1CCCc2cc(F)c(C(=O)N3CCC4(CC3)CCN(c3ccncc3)CC4)cc21)c1ccccc1Cl [Example H-88] | 104 | 100 |  | 
O=C(NC1CCc2ccc(C(=O)N3CCC4(CCN(c5ccncc5)CC4)C3)cc21)c1ccccc1Cl (stereo not drawn) [Ind_CC-100, 2-chloro-N-[6-(8-pyridin-4-yl-2,8-diazaspiro[4.5]decane-2-carbonyl)-2,3-dihydro-1H-inden-1-yl]-benzamide] | 104 | 100 |  | 
O=C(NC1CCc2ccc(C(=O)N3CCC4(CC3)CCN(c3ccncc3)CC4)cc21)c1ccccc1Cl (stereo not drawn) [Example H-02, 2-chloro-N-[6-(3-pyridin-4-yl-3,9-diazaspiro[5.5]undecane-9-carbonyl)-2,3-dihydro-1H-inden-1-yl]-benzamide] |  |  | 100 | 100
N#Cc1ccc(N2CCC3(CCN(C(=O)c4ccc5c(c4)[C@H](NC(=O)c4ccccc4Cl)CC5)C3)CC2)cc1 [Example H-140, 2-Chloro-N-[(1R)-6-[8-(4-cyano-phenyl)-3,8-diazaspiro[4.5]decane-3-carbonyl]-2,3-dihydro-1H-inden-1-yl]-benzamide] | 100 | 70 |  | 
